Experimental data published in patent publication US20230381503A1, “Compositions And Methods For Treating With A Combination Of Alternating Electric Fields And Ion Channel Inhibitors” (NOVOCURE GMBH, priority 2022, published 2023).

Key:
pGBM = assay: Invasion / migration capacity of pGBM with IAA94; type: cell-based, human; settings: FIG. 3
Text: (§1) The cell count in different cell lines (SF188 and KNS42) with and without IAA94.
(§2) Similar efficacy was observed when using TTFields as a treatment for pGBM (FIG. 4).

[1] = test system: pGBM cell lines (SF188 and KNS42); assay: Cell count of pGBM cell lines with and without IAA94; type: cell-based, human; settings: 100 uM IAA94, FIG. 3
Text: as §1, §2

GCE62, SF188 and KNS42 = assay: Cell proliferation of three cell lines treated with TTFields and IAA94; type: cell-based, human; settings: TTFields and IAA94 compared to TTFields alone, FIG. 6
[2] = test system: human glioblastoma primary culture; assay: Cell number after TTFields plus CLIC1 inhibitor IAA94; type: cell-based; settings: TTFields plus IAA94 vs TTFields alone or IAA94 alone, FIG. 12
Text: Thus, the combination therapy is a very effective treatment.

## CC1(C2CCCC2)Cc2cc(OCC(=O)O)c(Cl)c(Cl)c2C1=O (centres unmarked) [IAA94]
pGBM; 100 uM IAA94, pGBM
  invasive capacity: reduces invasive capacity
pGBM; inhibition of CLIC1 and CLIC4 by IAA94
  capacity of pGBM to proliferate, invade and migrate: reduced the capacity of pGBM to proliferate, invade and migrate
[1]
  overall cell count: reduces overall cell count
GCE62, SF188 and KNS42
  cell proliferation, combination with TTFields: significantly reduced cell proliferation compared to TTFields alone
[2]
  cell number, combination with TTFields: inhibits cell proliferation and/or kills more cells that TTFields alone or IAA94 alone
